From ChEMBL document CHEMBL1909046, “DrugMatrix in vitro pharmacology data”

Tests used:
[1] = target: Receptor tyrosine-protein kinase erbB-2 (Homo sapiens, UniProt P04626); experiment: biochemical; type: cell-based, Insect cells;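 note: inhibition of HER2 kinase enzyme activity, measured with Poly(Glu:Tyr) as the phosphorylation substrate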
Cytochrome P450 3A4 = Cytochrome P450 3A4 (Homo sapiens, UniProt P08684); details: bti-tn-5b1-4
[2] = target: C-C chemokine receptor type 2 (Homo sapiens, UniProt P41597); type: cell membranes, CHO-K1, Membrane
C-C chemokine receptor type 2, sequence (P41597 whole entry): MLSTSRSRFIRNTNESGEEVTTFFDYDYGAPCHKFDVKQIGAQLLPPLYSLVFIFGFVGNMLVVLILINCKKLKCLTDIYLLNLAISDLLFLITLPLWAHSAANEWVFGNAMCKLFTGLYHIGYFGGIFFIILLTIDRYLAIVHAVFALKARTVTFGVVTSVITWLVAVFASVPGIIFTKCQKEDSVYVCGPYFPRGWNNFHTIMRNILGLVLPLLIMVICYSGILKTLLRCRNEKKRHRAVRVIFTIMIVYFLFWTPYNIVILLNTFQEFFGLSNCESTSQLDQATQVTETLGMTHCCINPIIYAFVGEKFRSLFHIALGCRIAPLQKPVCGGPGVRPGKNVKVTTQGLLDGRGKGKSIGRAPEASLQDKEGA

[3] = target: 5-hydroxytryptamine receptor 4 (Cavia porcellus, UniProt O70528); type: cell membranes, Dunkin-Hartley, Striatum, Membrane
5-hydroxytryptamine receptor 4, sequence (O70528 whole entry): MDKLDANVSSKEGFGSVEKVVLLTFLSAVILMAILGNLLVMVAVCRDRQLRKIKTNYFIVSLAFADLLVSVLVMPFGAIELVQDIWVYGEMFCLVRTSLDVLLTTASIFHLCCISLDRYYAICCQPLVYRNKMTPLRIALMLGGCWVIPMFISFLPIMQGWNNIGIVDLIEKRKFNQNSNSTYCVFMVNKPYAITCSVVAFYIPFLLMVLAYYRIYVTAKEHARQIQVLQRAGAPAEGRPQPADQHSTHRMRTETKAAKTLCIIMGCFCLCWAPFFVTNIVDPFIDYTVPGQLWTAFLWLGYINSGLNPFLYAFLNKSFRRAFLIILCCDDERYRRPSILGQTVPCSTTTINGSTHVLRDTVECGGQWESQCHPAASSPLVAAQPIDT

[4] = target: T1, Cysteinyl leukotriene receptor 1 (Homo sapiens, UniProt Q9Y271); type: cell membranes, CHO-K1, Membrane
T1 sequence (Q9Y271 whole entry): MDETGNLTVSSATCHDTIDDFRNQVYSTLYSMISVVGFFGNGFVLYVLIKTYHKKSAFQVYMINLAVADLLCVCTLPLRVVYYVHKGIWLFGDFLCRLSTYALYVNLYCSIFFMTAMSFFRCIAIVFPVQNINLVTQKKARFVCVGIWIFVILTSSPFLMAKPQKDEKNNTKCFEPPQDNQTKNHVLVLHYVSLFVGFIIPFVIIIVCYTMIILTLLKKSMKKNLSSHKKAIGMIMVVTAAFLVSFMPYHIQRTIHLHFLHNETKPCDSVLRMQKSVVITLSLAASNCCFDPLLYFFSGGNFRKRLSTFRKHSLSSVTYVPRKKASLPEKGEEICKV
Note: in other assays of this panel Not Active means under 50% inhibition at 10 µM.

Cytochrome P450 3A4, sequence (P08684 whole entry): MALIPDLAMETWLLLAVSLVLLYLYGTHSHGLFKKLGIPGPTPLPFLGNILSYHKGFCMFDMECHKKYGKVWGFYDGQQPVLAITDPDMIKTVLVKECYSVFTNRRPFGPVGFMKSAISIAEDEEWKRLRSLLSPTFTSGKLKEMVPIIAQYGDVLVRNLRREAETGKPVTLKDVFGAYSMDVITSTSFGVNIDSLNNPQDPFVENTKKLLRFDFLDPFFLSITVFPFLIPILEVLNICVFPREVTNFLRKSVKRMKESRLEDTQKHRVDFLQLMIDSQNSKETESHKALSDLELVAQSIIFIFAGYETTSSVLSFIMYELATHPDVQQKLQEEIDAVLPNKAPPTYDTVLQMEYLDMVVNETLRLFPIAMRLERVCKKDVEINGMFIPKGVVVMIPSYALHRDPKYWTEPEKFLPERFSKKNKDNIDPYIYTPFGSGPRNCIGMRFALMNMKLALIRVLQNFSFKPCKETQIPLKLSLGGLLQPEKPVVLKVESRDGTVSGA

Compound | IC50 ([1]; insect cells) | IC50 (Cytochrome P450 3A4) | Ki (Cytochrome P450 3A4) | IC50 ([2]; cho-k1) | IC50 [3] | IC50 ([4]; cho-k1) | other results
CC(C)(C)NC(=O)[C@@H]1C[C@@H]2CCCC[C@@H]2CN1C[C@@H](O)[C@H](Cc1ccccc1)NC(=O)[C@H](CC(N)=O)NC(=O)c1ccc2ccccc2n1 | Not Active | Not Active | Not Active | Not Active | Not Active | Not Active | –
CC(=O)[C@@]1(O)CC[C@H]2[C@@H]3C[C@H](C)C4=CC(=O)CC[C@]4(C)[C@H]3CC[C@@]21C | Not Active | Not Active | Not Active | Not Active | Not Active | Not Active | –
N[C@@H](Cc1ccc(N(CCCl)CCCl)cc1)C(=O)O | Not Active | Not Active | Not Active | Not Active | Not Active | Not Active | –
CCCCc1oc2ccccc2c1C(=O)c1cc(I)c(OCCN(CC)CC)c(I)c1 [AMIODARONE] | – | – | – | – | Not Active | Not Active | IC50 ([1]; read-out: IC50): 9.15 µM; IC50 ([2]; read-out: IC50): 11.1 µM; Ki ([2]; read-out: Ki): 4.28 µM
OCCN(CCO)c1nc(N2CCCCC2)c2nc(N(CCO)CCO)nc(N3CCCCC3)c2n1 [DIPYRIDAMOLE] | Not Active | – | – | Not Active | Not Active | Not Active | –
Cc1oncc1C(=O)Nc1ccc(C(F)(F)F)cc1 [LEFLUNOMIDE] | Not Active | Not Active | Not Active | Not Active | Not Active | Not Active | –
c1ccc([C@H]2CN3CCSC3=N2)cc1 [LEVAMISOLE] | Not Active | Not Active | Not Active | Not Active | Not Active | Not Active | –
N[C@@H](Cc1ccc(O)c(O)c1)C(=O)O [LEVODOPA] | Not Active | Not Active | Not Active | Not Active | Not Active | Not Active | –
N[C@@H](Cc1cc(I)c(Oc2ccc(O)c(I)c2)c(I)c1)C(=O)O [LIOTHYRONINE] | Not Active | – | – | Not Active | Not Active | Not Active | –
O=NN(CCCl)C(=O)NC1CCCCC1 [LOMUSTINE] | Not Active | Not Active | Not Active | Not Active | Not Active | Not Active | –
CCOC(=O)N1CCC(=C2c3ccc(Cl)cc3CCc3cccnc32)CC1 [LORATADINE] | Not Active | – | – | Not Active | Not Active | Not Active | –
Cn1ccnc1S [METHIMAZOLE] | Not Active | – | – | Not Active | Not Active | Not Active | –
CC[C@@H](CO)NC(=O)[C@@H]1C=C2c3cccc4[nH]cc(c34)C[C@H]2N(C)C1 [METHYLERGONOVINE] | Not Active | Not Active | Not Active | Not Active | Not Active | Not Active | –
COc1nc(C)nc(Cl)c1NC1=NCCN1 [MOXONIDINE] | Not Active | Not Active | Not Active | Not Active | Not Active | Not Active | –
COc1c(C)c2c(c(O)c1C/C=C(\C)CCC(=O)O)C(=O)OC2 [MYCOPHENOLIC ACID] | Not Active | Not Active | Not Active | Not Active | Not Active | Not Active | –
O=c1ncn2nc(Sc3ccc(F)cc3F)ccc2c1-c1c(Cl)cccc1Cl [NEFLAMAPIMOD] | Not Active | Not Active | Not Active | Not Active | Not Active | Not Active | –
CN1CCN(CCCN2c3ccccc3Sc3ccc(Cl)cc32)CC1 [PROCHLORPERAZINE] | Not Active | Not Active | Not Active | Not Active | – | Not Active | IC50 ([3]; read-out: IC50): 1.16 µM; Ki ([3]; read-out: Ki): 0.194 µM
CO[C@H]1/C=C/O[C@@]2(C)Oc3c(C)c(O)c4c(O)c(c(/C=N/N5CCN(C)CC5)c(O)c4c3C2=O)NC(=O)/C(C)=C\C=C\[C@H](C)[C@H](O)[C@@H](C)[C@@H](O)[C@@H](C)[C@H](OC(C)=O)[C@@H]1C [RIFAMPIN] | Not Active | – | – | Not Active | Not Active | Not Active | –
Nc1nc2ccc(OC(F)(F)F)cc2s1 [RILUZOLE] | Not Active | – | – | Not Active | Not Active | Not Active | –

Compound | IC50 ([1]; insect cells) | IC50 (Cytochrome P450 3A4) | Ki (Cytochrome P450 3A4) | IC50 ([2]; cho-k1) | IC50 [3] | IC50 ([4]; cho-k1) | other results
Cc1nc2n(c(=O)c1CCN1CCC(c3noc4cc(F)ccc34)CC1)CCCC2 [RISPERIDONE] | Not Active | – | – | Not Active | Not Active | Not Active | –
C=CCC1(C(C)CCC)C(=O)NC(=O)NC1=O (stereo not given) [SECOBARBITAL] | Not Active | Not Active | Not Active | Not Active | Not Active | Not Active | –
C[C@@H]1CN(c2c(F)c(N)c3c(=O)c(C(=O)O)cn(C4CC4)c3c2F)C[C@H](C)N1 [SPARFLOXACIN] | Not Active | Not Active | Not Active | Not Active | Not Active | Not Active | –
Cc1noc(NS(=O)(=O)c2ccc(N)cc2)c1C [SULFISOXAZOLE] | Not Active | Not Active | Not Active | Not Active | Not Active | Not Active | –
CSc1ccc(/C=C2/C(C)=C(CC(=O)O)c3cc(F)ccc32)cc1 [SULINDAC SULFIDE] | Not Active | Not Active | Not Active | Not Active | Not Active | – | IC50 ([4]; read-out: IC50): 29.4 µM; Ki ([4]; read-out: Ki): 14.7 µM
Nc1c2c(nc3ccccc13)CCCC2 [TACRINE] | Not Active | Not Active | Not Active | Not Active | Not Active | Not Active | –
CC/C(=C(\c1ccccc1)c1ccc(OCCN(C)C)cc1)c1ccccc1 [TAMOXIFEN] | – | Not Active | Not Active | Not Active | Not Active | Not Active | IC50 ([1]; read-out: IC50): 2.95 µM
CC(C)N1CCN(c2ccc(OCC3COC(Cn4cncn4)(c4ccc(Cl)cc4Cl)O3)cc2)CC1 (stereo not given) [TERCONAZOLE] | Not Active | Not Active | Not Active | Not Active | – | Not Active | IC50 ([3]; read-out: IC50): 14.8 µM; Ki ([3]; read-out: Ki): 2.46 µM
Nc1nc2nc[nH]c2c(=S)[nH]1 [THIOGUANINE] | Not Active | Not Active | Not Active | Not Active | Not Active | Not Active | –
Cc1cccc(N(C)C(=S)Oc2ccc3ccccc3c2)c1 [TOLNAFTATE] | Not Active | Not Active | Not Active | Not Active | Not Active | Not Active | –
NC[C@H]1CC[C@H](C(=O)O)CC1 [TRANEXAMIC ACID] | Not Active | Not Active | Not Active | Not Active | Not Active | Not Active | –
CC1(C)O[C@@H]2C[C@H]3[C@@H]4CCC5=CC(=O)C=C[C@]5(C)[C@@]4(F)[C@@H](O)C[C@]3(C)[C@]2(C(=O)CO)O1 [TRIAMCINOLONE ACETONIDE] | Not Active | Not Active | Not Active | Not Active | Not Active | Not Active | –
NS(=O)(=O)c1cc2c(cc1Cl)NC(C(Cl)Cl)NS2(=O)=O (stereo not given) [TRICHLORMETHIAZIDE] | Not Active | Not Active | Not Active | Not Active | Not Active | Not Active | –
Cc1c(C)c2c(c(C)c1O)CCC(C)(COc1ccc(CC3SC(=O)NC3=O)cc1)O2 (stereo not given) [TROGLITAZONE] | Not Active | Not Active | Not Active | Not Active | Not Active | Not Active | –
N[C@@H]1[C@H]2CN(c3nc4c(cc3F)c(=O)c(C(=O)O)cn4-c3ccc(F)cc3F)C[C@@H]12 [TROVAFLOXACIN] | Not Active | Not Active | Not Active | Not Active | Not Active | Not Active | –
N#CC(C#N)=Cc1ccc(O)c(O)c1 [TYRPHOSTIN 23] | Not Active | Not Active | Not Active | Not Active | Not Active | Not Active | –
CC[C@]1(O)C[C@H]2CN(CCc3c([nH]c4ccccc34)[C@@](C(=O)OC)(c3cc4c(cc3OC)N(C=O)[C@H]3[C@@](O)(C(=O)OC)[C@H](OC(C)=O)[C@]5(CC)C=CCN6CC[C@]43[C@@H]65)C2)C1 [VINCRISTINE] | Not Active | Not Active | Not Active | Not Active | Not Active | Not Active | –
CCCOc1ccccc1-c1nc2nn[nH]c2c(=O)[nH]1 [ZAPRINAST] | Not Active | Not Active | Not Active | Not Active | Not Active | Not Active | –
SODIUM NITROPRUSSIDE | Not Active | Not Active | Not Active | Not Active | Not Active | Not Active | Ki ([1]; insect cells): Not Active; Ki ([2]; cho-k1): Not Active; Ki [3]: Not Active; Ki ([4]; cho-k1): Not Active
